How the values were obtained:
[1] = test system: Human immunodeficiency virus 1; test: Anti-HIV activity against drug resistant HIV-1 harboring E138K mutant infected in human MT4 cells assessed as inhibition of virus-induced cytopathic effect by MTT assay; assay type: functional, organism-based; conditions: Human immunodeficiency virus 1, MT4
[2] = test system: Human immunodeficiency virus 1; test: Anti-HIV activity against drug resistant HIV-1 harboring Y188L mutant infected in human MT4 cells assessed as inhibition of virus-induced cytopathic effect by MTT assay; assay type: functional, organism-based; conditions: Human immunodeficiency virus 1, MT4
[3] = test system: Human immunodeficiency virus 1; test: Anti-HIV activity against drug resistant HIV-1 harboring F227L/V106A mutant infected in human MT4 cells assessed as inhibition of virus-induced cytopathic effect by MTT assay; assay type: functional, organism-based; conditions: Human immunodeficiency virus 1, MT4
[4] = Cytotoxicity against human MT4 cells assessed as reduction in cell viability by MTT assay; assay type: toxicity, cell-based
[5] = test system: Human immunodeficiency virus 1; test: Anti-HIV activity against drug resistant HIV-1 harboring Y181C mutant infected in human MT4 cells assessed as inhibition of virus-induced cytopathic effect by MTT assay; assay type: functional, organism-based; conditions: Human immunodeficiency virus 1, MT4
[6] = test system: Human immunodeficiency virus 1; test: Anti-HIV activity against drug resistant HIV-1 harboring K103N mutant infected in human MT4 cells assessed as inhibition of virus-induced cytopathic effect by MTT assay; assay type: functional, organism-based; conditions: Human immunodeficiency virus 1, MT4
[7] = Selectivity index, ratio of CC50 for cytotoxicity against human MT4 cells assessed as reduction in cell viability by MTT assay to EC50 for anti-HIV activity against wild type HIV-1 IIIB infected in human MT4 cells assessed as inhibition of virus-induced cytopathic effect by MTT assay; assay type: toxicity, cell-based; conditions: read-out: Ratio CC50/EC50
[8] = test system: Human immunodeficiency virus 1; test: Anti-HIV activity against drug resistant HIV-1 harboring L100I mutant infected in human MT4 cells assessed as inhibition of virus-induced cytopathic effect by MTT assay; assay type: functional, organism-based; conditions: Human immunodeficiency virus 1, MT4
[9] = test system: Human immunodeficiency virus 1; test: Anti-HIV activity against wild type HIV-1 IIIB infected in human MT4 cells assessed as inhibition of virus-induced cytopathic effect by MTT assay; assay type: functional, organism-based; conditions: Human immunodeficiency virus 1, IIIB

SMILES | EC50 [1] [µM] | EC50 [2] [µM] | EC50 [3] [µM] | CC50 [4] [µM] | EC50 [5] [µM] | EC50 [6] [µM] | selectivity ratio [7] | EC50 [8] [µM] | EC50 [9] [µM]
COc1cc(OC)cc(C(N=[N+]=[N-])c2nc(SC(C)C)[nH]c(=O)c2C)c1 (configuration not stated) | 1.54 | > 333 | 38.5 | > 333 | 9.85 | 107 | > 983 | 2.62 | 0.34
CC(C)Sc1nc(C(N=[N+]=[N-])c2ccc(F)cc2)c(C(C)C)c(=O)[nH]1 (configuration not stated) | – | – | – | > 346 | – | – | > 298 | – | 1.16
Cc1cn([C@H]2C[C@H](N=[N+]=[N-])[C@@H](CO)O2)c(=O)[nH]c1=O [ZIDOVUDINE] | – | – | 0.026 | > 7.06 | 0.023 | 0.024 | > 236 | 0.012 | –
CCc1c(C(N=[N+]=[N-])c2ccc(Cl)cc2)nc(SC(C)C)[nH]c1=O (configuration not stated) | 0.81 | > 344 | > 127 | > 344 | 95.2 | 14.3 | > 1310 | 3.69 | 0.26
Cc1c(C(N=[N+]=[N-])c2ccc(Br)cc2)nc(SC(C)C)[nH]c1=O (configuration not stated) | – | – | – | > 317 | – | – | > 1410 | – | 0.23
CCc1c(C(N=[N+]=[N-])c2ccccc2)nc(SC(C)C)[nH]c1=O (configuration not stated) | 0.55 | 188 | 14.9 | > 379 | 6.02 | 6.03 | > 2770 | 12.2 | 0.14
CC(C)Sc1nc(C(N=[N+]=[N-])c2ccc(Br)cc2)c(C(C)C)c(=O)[nH]1 (configuration not stated) | 3.69 | > 32.3 | > 32.2 | 32.8 | > 32.2 | 8.2 | 23 | 1.44 | 1.45
Cc1ccnc2c1NC(=O)c1cccnc1N2C1CC1 [NEVIRAPINE] | – | > 15 | > 15 | > 15 | 7.71 | – | – | – | –
CCc1c(C(N=[N+]=[N-])c2ccc(-c3ccccc3)cc2)nc(SC(C)C)[nH]c1=O (configuration not stated) | 0.37 | 65.4 | 16 | > 308 | 4.41 | 20.9 | – | 2.06 | > 308
Cc1ccc(C(N=[N+]=[N-])c2nc(SC(C)C)[nH]c(=O)c2C(C)C)cc1 (configuration not stated) | – | – | – | > 350 | – | – | > 667 | – | 0.52
CC(C)Sc1nc(C(N=[N+]=[N-])c2ccccc2)c(C(C)C)c(=O)[nH]1 (configuration not stated) | – | – | – | > 364 | – | – | > 780 | – | 0.47
CC(C)Sc1nc(C(N=[N+]=[N-])c2ccc(Cl)cc2)c(C(C)C)c(=O)[nH]1 (configuration not stated) | – | – | – | > 331 | – | – | > 367 | – | 0.9
Cc1c(C(N=[N+]=[N-])c2ccc(OC(F)(F)F)cc2)nc(SC(C)C)[nH]c1=O (configuration not stated) | – | – | – | > 313 | – | – | > 63 | – | 4.93
CCc1c(C(N=[N+]=[N-])c2ccc(F)cc2)nc(SC(C)C)[nH]c1=O (configuration not stated) | – | – | – | > 360 | – | – | > 956 | – | 0.38
CC(C)Sc1nc(C(N=[N+]=[N-])c2ccc3ccccc3c2)c(C(C)C)c(=O)[nH]1 (configuration not stated) | 0.09 | > 58.7 | 7.39 | 4.79 | 1.4 | 3.3 | < 1 | 1.06 | > 4.78
CC(C)Sc1nc(C(N=[N+]=[N-])c2ccc(-c3ccccc3)cc2)c(C(C)C)c(=O)[nH]1 (configuration not stated) | – | – | – | 84.2 | – | – | < 1 | – | > 59.2

— ChEMBL document CHEMBL5352488, “Development of novel S-N3-DABO derivatives as potent non-nucleoside reverse transcriptase inhibitors with improved potency and selectivity” (Eur J Med Chem, 2023)
